Results from ChEMBL document CHEMBL4507278 (2021).

Legend:
[1] = target: Serine/threonine-protein kinase WNK4 (Homo sapiens) (UniProt Q96J92); settings: Compound concentration 1000.0 nM
[2] = target: Macrophage colony-stimulating factor 1 receptor (Homo sapiens) (UniProt P07333); settings: Compound concentration 1000.0 nM
[3] = target: Serine/threonine-protein kinase ULK1 (Homo sapiens) (UniProt O75385); settings: Compound concentration 1000.0 nM
[4] = test system: Tyrosine-protein kinase ABL1 (Homo sapiens), P00519 [H396P]; settings: Compound concentration 1000.0 nM
[5] = target: Serine/threonine-protein kinase NLK (Homo sapiens) (UniProt Q9UBE8); settings: Compound concentration 1000.0 nM
Chain of Serine/threonine-protein kinase NLK (Homo sapiens) (Q9UBE8 whole entry): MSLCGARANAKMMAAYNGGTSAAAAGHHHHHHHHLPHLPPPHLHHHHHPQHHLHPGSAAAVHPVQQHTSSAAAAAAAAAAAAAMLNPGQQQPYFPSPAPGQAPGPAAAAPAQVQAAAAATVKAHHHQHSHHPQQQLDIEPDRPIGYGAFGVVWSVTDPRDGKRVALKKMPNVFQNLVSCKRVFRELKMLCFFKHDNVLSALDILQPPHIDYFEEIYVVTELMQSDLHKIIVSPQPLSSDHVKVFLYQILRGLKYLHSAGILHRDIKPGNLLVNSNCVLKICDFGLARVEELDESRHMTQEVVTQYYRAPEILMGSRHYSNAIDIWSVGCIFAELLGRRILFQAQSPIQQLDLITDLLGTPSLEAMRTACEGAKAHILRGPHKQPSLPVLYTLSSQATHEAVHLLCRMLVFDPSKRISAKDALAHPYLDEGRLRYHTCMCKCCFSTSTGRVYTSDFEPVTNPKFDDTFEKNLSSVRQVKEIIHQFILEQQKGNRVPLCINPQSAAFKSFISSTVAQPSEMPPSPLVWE

[6] = target: Serine/threonine-protein kinase haspin (Homo sapiens) (UniProt Q8TF76); settings: Compound concentration 1000.0 nM
[7] = target: Serine/threonine-protein kinase 38-like (Homo sapiens) (UniProt Q9Y2H1); settings: Compound concentration 1000.0 nM
[8] = test system: Tyrosine-protein kinase ABL1 (Homo sapiens), P00519 [E255K]; settings: Compound concentration 1000.0 nM
[9] = target: Serine/threonine-protein kinase PAK 5 (Homo sapiens) (UniProt Q9P286); settings: Compound concentration 1000.0 nM
[10] = target: 3-phosphoinositide-dependent protein kinase 1 (Homo sapiens) (UniProt O15530); settings: Compound concentration 1000.0 nM
Chain of 3-phosphoinositide-dependent protein kinase 1 (Homo sapiens) (O15530 whole entry): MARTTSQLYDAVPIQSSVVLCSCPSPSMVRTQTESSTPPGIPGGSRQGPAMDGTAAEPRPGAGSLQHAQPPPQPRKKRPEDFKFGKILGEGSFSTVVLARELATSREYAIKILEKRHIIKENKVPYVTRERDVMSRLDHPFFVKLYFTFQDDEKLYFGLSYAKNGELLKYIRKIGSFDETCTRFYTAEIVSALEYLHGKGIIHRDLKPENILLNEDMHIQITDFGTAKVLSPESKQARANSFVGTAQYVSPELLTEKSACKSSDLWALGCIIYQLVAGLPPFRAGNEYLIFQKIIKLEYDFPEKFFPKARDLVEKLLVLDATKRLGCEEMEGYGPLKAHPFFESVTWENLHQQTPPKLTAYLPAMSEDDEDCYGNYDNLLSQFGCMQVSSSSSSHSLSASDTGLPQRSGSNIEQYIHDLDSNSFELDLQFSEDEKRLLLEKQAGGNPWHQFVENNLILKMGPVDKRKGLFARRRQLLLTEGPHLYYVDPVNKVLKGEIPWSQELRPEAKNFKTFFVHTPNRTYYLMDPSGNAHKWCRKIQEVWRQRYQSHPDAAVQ

[11] = test system: Epidermal growth factor receptor (Homo sapiens), P00533 [UNDEFINED MUTATION]; settings: Compound concentration 1000.0 nM
[12] = target: RAC-gamma serine/threonine-protein kinase (Homo sapiens) (UniProt Q9Y243); settings: Compound concentration 1000.0 nM
[13] = target: Receptor-interacting serine/threonine-protein kinase 1 (Homo sapiens) (UniProt Q13546); settings: Compound concentration 1000.0 nM
[14] = target: T1, Alpha-2A adrenergic receptor (Homo sapiens) (UniProt P08913); settings: Compound concentration 10.0 uM
T1 sequence (whole entry): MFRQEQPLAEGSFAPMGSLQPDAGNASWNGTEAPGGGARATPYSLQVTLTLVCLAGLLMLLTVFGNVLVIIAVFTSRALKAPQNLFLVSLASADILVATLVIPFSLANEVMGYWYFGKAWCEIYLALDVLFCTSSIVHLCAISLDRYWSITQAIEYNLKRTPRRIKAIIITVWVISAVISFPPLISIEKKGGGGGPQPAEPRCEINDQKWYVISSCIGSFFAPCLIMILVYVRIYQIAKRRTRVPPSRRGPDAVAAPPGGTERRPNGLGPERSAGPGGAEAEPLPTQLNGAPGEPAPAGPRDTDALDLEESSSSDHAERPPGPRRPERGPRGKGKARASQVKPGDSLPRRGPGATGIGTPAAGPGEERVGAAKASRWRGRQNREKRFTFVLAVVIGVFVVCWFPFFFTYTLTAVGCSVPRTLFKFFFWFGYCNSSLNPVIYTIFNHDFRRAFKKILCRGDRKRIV

Rattus norvegicus = organism: Rattus norvegicus; settings: Compound concentration 10.0 uM
[15] = target: Tyrosine-protein kinase JAK1 (Homo sapiens) (UniProt P23458); settings: Compound concentration 1000.0 nM
[16] = target: Dual specificity testis-specific protein kinase 1 (Homo sapiens) (UniProt Q15569); settings: Compound concentration 1000.0 nM
[17] = test system: Mast/stem cell growth factor receptor Kit (Homo sapiens), P10721 [V559D,T670I]; settings: Compound concentration 1000.0 nM
[18] = target: Casein kinase II subunit alpha (Homo sapiens) (UniProt P68400); settings: Compound concentration 1000.0 nM
[19] = target: Myosin light chain kinase family member 4 (Homo sapiens) (UniProt Q86YV6); settings: Compound concentration 1000.0 nM
Chain of Myosin light chain kinase family member 4 (Homo sapiens) (Q86YV6 whole entry): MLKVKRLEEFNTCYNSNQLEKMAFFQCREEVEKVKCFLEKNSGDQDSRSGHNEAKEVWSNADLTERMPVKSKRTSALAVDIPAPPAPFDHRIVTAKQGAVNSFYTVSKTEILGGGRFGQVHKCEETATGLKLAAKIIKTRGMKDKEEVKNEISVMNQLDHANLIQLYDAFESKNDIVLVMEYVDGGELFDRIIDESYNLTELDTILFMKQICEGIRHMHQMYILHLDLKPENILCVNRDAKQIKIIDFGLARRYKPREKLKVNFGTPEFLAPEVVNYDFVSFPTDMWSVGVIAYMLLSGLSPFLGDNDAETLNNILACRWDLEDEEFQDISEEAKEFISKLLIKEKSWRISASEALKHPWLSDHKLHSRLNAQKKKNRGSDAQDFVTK

[20] = target: Wee1-like protein kinase (Homo sapiens) (UniProt P30291); settings: Compound concentration 1000.0 nM
Chain of Wee1-like protein kinase (Homo sapiens) (P30291 whole entry, looked up): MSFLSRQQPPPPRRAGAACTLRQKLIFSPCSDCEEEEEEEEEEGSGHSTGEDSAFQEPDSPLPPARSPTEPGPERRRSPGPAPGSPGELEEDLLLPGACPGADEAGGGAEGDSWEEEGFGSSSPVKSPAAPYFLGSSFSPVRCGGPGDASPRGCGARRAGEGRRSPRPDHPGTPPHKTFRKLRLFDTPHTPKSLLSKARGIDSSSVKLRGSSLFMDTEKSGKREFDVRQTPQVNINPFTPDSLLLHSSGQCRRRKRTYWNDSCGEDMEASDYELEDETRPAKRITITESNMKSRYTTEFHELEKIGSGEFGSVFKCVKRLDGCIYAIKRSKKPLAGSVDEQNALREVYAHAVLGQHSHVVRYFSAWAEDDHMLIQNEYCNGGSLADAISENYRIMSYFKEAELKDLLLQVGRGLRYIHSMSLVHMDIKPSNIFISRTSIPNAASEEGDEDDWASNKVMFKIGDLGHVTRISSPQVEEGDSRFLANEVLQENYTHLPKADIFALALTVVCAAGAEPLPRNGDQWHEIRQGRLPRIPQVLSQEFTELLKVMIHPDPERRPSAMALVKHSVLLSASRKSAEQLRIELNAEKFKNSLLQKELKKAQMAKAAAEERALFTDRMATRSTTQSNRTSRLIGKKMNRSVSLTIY

[21] = target: Serine/threonine-protein kinase Nek2 (Homo sapiens) (UniProt P51955); settings: Compound concentration 1000.0 nM
[22] = target: Mitogen-activated protein kinase kinase kinase kinase 3 (Homo sapiens) (UniProt Q8IVH8); settings: Compound concentration 1000.0 nM
[23] = target: Serine/threonine-protein kinase BRSK2 (Homo sapiens) (UniProt Q8IWQ3); settings: Compound concentration 1000.0 nM
[24] = target: Serine/threonine-protein kinase MARK1 (Homo sapiens) (UniProt Q9P0L2); settings: Compound concentration 1000.0 nM
[25] = target: Serine/threonine-protein kinase NIM1 (Homo sapiens) (UniProt Q8IY84); settings: Compound concentration 1000.0 nM
Chain of Serine/threonine-protein kinase NIM1 (Homo sapiens) (Q8IY84 whole entry): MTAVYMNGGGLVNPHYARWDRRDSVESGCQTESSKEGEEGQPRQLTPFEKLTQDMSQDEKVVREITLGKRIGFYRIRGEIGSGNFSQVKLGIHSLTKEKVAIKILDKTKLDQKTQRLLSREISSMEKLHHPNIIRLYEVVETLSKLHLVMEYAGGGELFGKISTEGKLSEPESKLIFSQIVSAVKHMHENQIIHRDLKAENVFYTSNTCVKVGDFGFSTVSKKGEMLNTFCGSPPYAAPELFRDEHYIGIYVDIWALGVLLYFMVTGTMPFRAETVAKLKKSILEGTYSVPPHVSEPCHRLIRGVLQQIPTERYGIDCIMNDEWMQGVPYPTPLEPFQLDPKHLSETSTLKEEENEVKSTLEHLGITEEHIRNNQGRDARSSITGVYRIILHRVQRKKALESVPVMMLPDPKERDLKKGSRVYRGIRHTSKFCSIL

[26] = target: Mitogen-activated protein kinase 8 (Homo sapiens) (UniProt P45983); settings: Compound concentration 1000.0 nM
[27] = target: Tyrosine-protein kinase Fes/Fps (Homo sapiens) (UniProt P07332); settings: Compound concentration 1000.0 nM
[28] = target: Fibroblast growth factor receptor 4 (Homo sapiens) (UniProt P22455); settings: Compound concentration 1000.0 nM
[29] = target: Calcium-dependent protein kinase 1 (Plasmodium falciparum) (UniProt P62344); settings: Compound concentration 1000.0 nM
[30] = target: Serine/threonine-protein kinase SIK1 (Homo sapiens) (UniProt P57059); settings: Compound concentration 1000.0 nM
Chain of Serine/threonine-protein kinase SIK1 (Homo sapiens) (P57059 whole entry): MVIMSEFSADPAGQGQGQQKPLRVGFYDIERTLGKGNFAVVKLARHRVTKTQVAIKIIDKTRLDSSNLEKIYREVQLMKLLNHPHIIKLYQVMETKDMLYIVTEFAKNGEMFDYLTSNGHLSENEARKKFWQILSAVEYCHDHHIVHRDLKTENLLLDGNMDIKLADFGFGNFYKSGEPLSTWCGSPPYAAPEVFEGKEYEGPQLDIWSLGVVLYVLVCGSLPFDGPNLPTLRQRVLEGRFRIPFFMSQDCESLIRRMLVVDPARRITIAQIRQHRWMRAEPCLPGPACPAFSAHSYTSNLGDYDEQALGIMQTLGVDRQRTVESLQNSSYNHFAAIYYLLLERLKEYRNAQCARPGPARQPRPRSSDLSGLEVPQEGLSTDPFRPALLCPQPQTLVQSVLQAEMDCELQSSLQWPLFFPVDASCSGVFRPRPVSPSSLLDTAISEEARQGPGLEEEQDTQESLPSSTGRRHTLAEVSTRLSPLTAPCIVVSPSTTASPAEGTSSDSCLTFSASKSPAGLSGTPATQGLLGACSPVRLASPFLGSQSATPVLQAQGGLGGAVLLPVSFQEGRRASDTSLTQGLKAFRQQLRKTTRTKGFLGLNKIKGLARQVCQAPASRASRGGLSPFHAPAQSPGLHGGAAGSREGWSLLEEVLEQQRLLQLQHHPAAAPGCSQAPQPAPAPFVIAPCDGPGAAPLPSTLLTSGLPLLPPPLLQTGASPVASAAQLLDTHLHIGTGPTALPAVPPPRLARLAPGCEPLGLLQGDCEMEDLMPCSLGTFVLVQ

[31] = target: Ribosomal protein S6 kinase beta-1 (Homo sapiens) (UniProt P23443); settings: Compound concentration 1000.0 nM
[32] = target: Myosin-IIIb (Homo sapiens) (UniProt Q8WXR4); settings: Compound concentration 1000.0 nM
[33] = target: Serine/threonine-protein kinase SBK1 (Homo sapiens) (UniProt Q52WX2); settings: Compound concentration 1000.0 nM
Chain of Serine/threonine-protein kinase SBK1 (Homo sapiens) (Q52WX2 whole entry, canonical isoform): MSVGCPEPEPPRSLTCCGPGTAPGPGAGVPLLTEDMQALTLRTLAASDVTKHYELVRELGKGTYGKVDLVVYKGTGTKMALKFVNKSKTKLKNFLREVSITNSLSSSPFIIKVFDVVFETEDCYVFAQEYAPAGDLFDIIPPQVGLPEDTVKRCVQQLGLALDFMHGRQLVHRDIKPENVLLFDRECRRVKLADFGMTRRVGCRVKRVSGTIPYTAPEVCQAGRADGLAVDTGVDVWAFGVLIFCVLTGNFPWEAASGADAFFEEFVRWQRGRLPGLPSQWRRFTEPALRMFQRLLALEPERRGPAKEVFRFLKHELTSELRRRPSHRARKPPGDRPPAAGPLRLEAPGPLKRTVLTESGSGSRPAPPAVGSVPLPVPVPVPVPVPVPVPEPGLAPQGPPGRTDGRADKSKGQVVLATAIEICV

[34] = target: Casein kinase I isoform gamma-1 (Homo sapiens) (UniProt Q9HCP0); settings: Compound concentration 1000.0 nM

Chain of Serine/threonine-protein kinase ULK1 (Homo sapiens) (O75385 whole entry): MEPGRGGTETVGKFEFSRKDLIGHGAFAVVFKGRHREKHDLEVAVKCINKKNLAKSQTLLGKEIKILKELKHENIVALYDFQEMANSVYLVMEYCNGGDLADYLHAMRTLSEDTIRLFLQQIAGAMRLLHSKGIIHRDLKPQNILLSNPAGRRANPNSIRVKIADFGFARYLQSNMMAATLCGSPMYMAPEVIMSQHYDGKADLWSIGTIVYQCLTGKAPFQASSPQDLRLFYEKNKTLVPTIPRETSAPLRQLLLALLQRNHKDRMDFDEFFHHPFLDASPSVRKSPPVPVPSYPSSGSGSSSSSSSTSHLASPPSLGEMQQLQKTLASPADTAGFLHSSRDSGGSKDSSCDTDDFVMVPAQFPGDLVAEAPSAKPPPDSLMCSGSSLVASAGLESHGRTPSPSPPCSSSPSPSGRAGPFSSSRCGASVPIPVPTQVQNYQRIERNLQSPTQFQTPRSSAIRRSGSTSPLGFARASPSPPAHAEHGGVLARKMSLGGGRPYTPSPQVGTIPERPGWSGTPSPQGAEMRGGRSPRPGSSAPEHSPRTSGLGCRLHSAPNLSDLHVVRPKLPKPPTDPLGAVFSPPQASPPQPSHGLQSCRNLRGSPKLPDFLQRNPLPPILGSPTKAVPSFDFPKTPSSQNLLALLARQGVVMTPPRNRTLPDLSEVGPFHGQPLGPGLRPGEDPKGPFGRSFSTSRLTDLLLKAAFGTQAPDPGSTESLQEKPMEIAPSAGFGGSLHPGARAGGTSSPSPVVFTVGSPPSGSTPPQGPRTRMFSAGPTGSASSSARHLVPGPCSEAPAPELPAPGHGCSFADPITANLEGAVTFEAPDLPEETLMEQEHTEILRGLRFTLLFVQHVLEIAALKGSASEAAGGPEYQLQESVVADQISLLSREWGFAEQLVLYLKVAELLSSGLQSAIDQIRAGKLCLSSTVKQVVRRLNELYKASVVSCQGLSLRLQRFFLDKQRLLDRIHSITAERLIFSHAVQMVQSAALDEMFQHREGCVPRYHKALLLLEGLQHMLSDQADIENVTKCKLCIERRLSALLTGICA

Row | Structure (SMILES) | residual activity [1] [%] | residual activity [2] [%] | residual activity [3] [%] | residual activity [4] [%] | residual activity [5] [%] | residual activity [6] [%] | residual activity [7] [%] | residual activity [8] [%] | residual activity [9] [%] | residual activity [10] [%] | residual activity [11] [%] | residual activity [12] [%] | residual activity [13] [%] | inhibition [14] [%] | inhibition (Rattus norvegicus) [%] | residual activity [15] [%] | residual activity [16] [%] | residual activity [17] [%] | residual activity [18] [%] | residual activity [19] [%] | also measured
1 | CS(=O)(=O)c1cc(C2(NC(=O)c3cncc4c3cnn4-c3ccc(F)cc3)CC2)ccn1 [BI 639667] | 97 | 100 | 100 | 100 | 100 | 90 | 34 | 100 | 100 | 100 | 100 | 96 | 100 | -2.44 | 17.9 | 83 | 62 | 84 | 64 | 85 | residual activity [20]: 100%; residual activity [21]: 93%; residual activity [22]: 87%; residual activity [23]: 84%; residual activity [24]: 100%; residual activity [25]: 56%; residual activity [26]: 95%; residual activity [27]: 100%; residual activity [28]: 74%; residual activity [29]: 99%; residual activity [30]: 100%; residual activity [31]: 100%; residual activity [32]: 100%; residual activity [33]: 95%; residual activity [34]: 100%
2 | CS(=O)(=O)NCC[C@H](NC(=O)c1cncc2c1cnn2-c1ccc(F)cc1)c1ccnc(S(C)(=O)=O)c1 [BI 9307] | 100 | 100 | 100 | 97 | 100 | 100 | 50 | 93 | 99 | 100 | 100 | 93 | 99 | 3.49 | -5.04 | 100 | 100 | 100 | 100 | 100 | residual activity [20]: 99%; residual activity [21]: 97%; residual activity [22]: 90%; residual activity [23]: 77%; residual activity [24]: 92%; residual activity [25]: 100%; residual activity [26]: 80%; residual activity [27]: 100%; residual activity [28]: 100%; residual activity [29]: 99%; residual activity [30]: 100%; residual activity [31]: 86%; residual activity [32]: 100%; residual activity [33]: 96%; residual activity [34]: 91%
